Measurements: ChEMBL document CHEMBL3621115, “Discovery of 6-phenylimidazo[2,1-b]thiazole derivatives as a new type of FLT3 inhibitors” (Bioorg Med Chem Lett, 2015)
The source made the active and inactive calls. No cut-off for these calls is given here.

Columns and labels:
[1] = biological target: Tyrosine-protein kinase receptor UFO (Homo sapiens, UniProt P30530); assay: Inhibition of human recombinant Axl
[2] = biological target: Ribosomal protein S6 kinase alpha-1 (Homo sapiens, UniProt Q15418); assay: Inhibition of human recombinant Rsk1
[3] = biological target: Platelet-derived growth factor receptor alpha (Homo sapiens, UniProt P16234); assay: Inhibition of human recombinant PDGFRalpha
[4] = biological target: Serine/threonine-protein kinase PLK1 (Homo sapiens, UniProt P53350); assay: Inhibition of human recombinant Plk1
Sequence of Serine/threonine-protein kinase PLK1 (P53350 whole entry): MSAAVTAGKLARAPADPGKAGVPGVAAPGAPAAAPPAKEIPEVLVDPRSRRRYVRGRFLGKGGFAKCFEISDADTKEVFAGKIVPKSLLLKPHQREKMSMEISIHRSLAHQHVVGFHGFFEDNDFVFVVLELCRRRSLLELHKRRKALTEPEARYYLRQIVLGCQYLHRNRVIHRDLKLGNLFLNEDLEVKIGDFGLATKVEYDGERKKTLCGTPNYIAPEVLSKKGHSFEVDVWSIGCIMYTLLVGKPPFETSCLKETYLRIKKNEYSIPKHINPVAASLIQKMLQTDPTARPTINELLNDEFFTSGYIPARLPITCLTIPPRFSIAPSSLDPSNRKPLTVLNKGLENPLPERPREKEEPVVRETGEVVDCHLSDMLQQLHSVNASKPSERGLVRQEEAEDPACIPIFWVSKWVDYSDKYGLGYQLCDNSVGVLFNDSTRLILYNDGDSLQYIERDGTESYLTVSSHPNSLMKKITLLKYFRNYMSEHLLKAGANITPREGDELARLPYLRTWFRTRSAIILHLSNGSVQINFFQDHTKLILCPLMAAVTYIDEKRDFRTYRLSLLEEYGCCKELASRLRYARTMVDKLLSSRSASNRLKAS

[5] = biological target: BDNF/NT-3 growth factors receptor (Homo sapiens, UniProt Q16620); assay: Inhibition of human recombinant TrkB
Jurkat = assay: Cytotoxicity against human Jurkat cells assessed as cell viability after 72 hrs by MTT assay; assay type: functional, cell-based
[6] = biological target: Tyrosine-protein kinase JAK3 (Homo sapiens, UniProt P52333); assay: Inhibition of human recombinant JAK3
[7] = biological target: Serine/threonine-protein kinase pim-1 (Homo sapiens, UniProt P11309); assay: Inhibition of human recombinant Pim1
[8] = biological target: Serine/threonine-protein kinase Chk1 (Homo sapiens, UniProt O14757); assay: Inhibition of human recombinant CHK1
Sequence of Serine/threonine-protein kinase Chk1 (O14757 whole entry): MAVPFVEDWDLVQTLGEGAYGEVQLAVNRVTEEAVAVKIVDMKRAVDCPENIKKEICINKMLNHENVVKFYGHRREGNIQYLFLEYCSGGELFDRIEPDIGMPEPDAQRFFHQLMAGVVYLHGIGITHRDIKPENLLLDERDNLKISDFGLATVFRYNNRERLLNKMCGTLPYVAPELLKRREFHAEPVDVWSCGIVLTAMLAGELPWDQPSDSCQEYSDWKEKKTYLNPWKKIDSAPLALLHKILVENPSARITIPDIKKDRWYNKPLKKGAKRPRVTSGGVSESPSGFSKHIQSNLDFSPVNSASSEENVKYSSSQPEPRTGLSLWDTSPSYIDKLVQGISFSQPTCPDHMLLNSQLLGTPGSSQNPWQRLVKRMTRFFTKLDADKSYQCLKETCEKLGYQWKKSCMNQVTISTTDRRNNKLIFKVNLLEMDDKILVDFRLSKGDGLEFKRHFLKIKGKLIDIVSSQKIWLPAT

A2058 = assay: Cytotoxicity against human A2058 cells assessed as cell viability after 72 hrs by MTT assay; assay type: functional, cell-based; conditions: A2058, 72 h
[9] = biological target: Dual specificity mitogen-activated protein kinase kinase 1 (Homo sapiens, UniProt Q02750); assay: Inhibition of human recombinant MEK1
BT-474 = assay: Cytotoxicity against human BT474 cells assessed as cell viability after 72 hrs by MTT assay; assay type: functional, cell-based; conditions: BT-474, 72 h
[10] = Cytotoxicity against human UM-UC-3 cells assessed as cell viability after 72 hrs by MTT assay; assay type: functional, cell-based; conditions: UMUC3, 72 h
[11] = Cytotoxicity against human SKBR3 cells assessed as cell viability after 72 hrs by MTT assay; assay type: functional, cell-based; conditions: SK-BR-3, 72 h
[12] = biological target: Serine/threonine-protein kinase D2 (Homo sapiens, UniProt Q9BZL6); assay: Inhibition of human recombinant PKD2
[13] = biological target: Mitogen-activated protein kinase kinase kinase 9 (Homo sapiens, UniProt P80192); assay: Inhibition of human recombinant MLK1
[14] = biological target: Serine/threonine-protein kinase D1 (Homo sapiens, UniProt Q15139); assay: Inhibition of human recombinant PKCmu
Aurora kinase B = Aurora kinase B (Homo sapiens, UniProt Q96GD4); assay: Inhibition of human recombinant Aurora-B
MDA-MB-157 = assay: Cytotoxicity against human MDA-MB-157 cells assessed as cell viability after 72 hrs by MTT assay; assay type: functional, cell-based; conditions: MDA-MB-157, 72 h
U-251 = assay: Cytotoxicity against human U251 cells assessed as cell viability after 72 hrs by MTT assay; assay type: functional, cell-based; conditions: U-251, 72 h
[15] = Cytotoxicity against human KYSE-150 cells assessed as cell viability after 72 hrs by MTT assay; assay type: functional, cell-based; conditions: KYSE-150, 72 h
[16] = biological target: Fibroblast growth factor receptor 2 (Homo sapiens, UniProt P21802); assay: Inhibition of human recombinant FGFR2
MDA-MB-453 = assay: Cytotoxicity against human MDA-MB-453 cells assessed as cell viability after 72 hrs by MTT assay; assay type: functional, cell-based; conditions: MDA-MB-453, 72 h
[17] = biological target: Receptor tyrosine-protein kinase erbB-4 (Homo sapiens, UniProt Q15303); assay: Inhibition of human recombinant ErbB4
[18] = biological target: Calcium/calmodulin-dependent protein kinase type IV (Homo sapiens, UniProt Q16566); assay: Inhibition of human recombinant CaMK4
Sequence of Calcium/calmodulin-dependent protein kinase type IV (Q16566 whole entry): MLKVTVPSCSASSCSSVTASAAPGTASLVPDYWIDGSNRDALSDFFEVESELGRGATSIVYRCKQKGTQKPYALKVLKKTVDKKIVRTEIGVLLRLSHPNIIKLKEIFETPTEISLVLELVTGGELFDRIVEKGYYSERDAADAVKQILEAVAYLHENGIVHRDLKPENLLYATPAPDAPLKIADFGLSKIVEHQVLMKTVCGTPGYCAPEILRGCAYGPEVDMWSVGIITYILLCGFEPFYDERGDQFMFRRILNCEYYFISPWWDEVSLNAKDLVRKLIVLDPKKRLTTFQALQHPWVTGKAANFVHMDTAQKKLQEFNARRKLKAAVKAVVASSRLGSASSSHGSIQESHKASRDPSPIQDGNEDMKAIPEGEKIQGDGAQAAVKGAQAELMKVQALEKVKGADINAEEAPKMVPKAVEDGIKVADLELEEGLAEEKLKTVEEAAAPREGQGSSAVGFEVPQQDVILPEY

[19] = biological target: Glycogen synthase kinase-3 beta (Homo sapiens, UniProt P49841); assay: Inhibition of human recombinant GSK3beta
SH-SY5Y = assay: Cytotoxicity against human SH-SY5Y cells assessed as cell viability after 72 hrs by MTT assay; assay type: functional, cell-based
CWR22R = assay: Cytotoxicity against human 22Rv1 cells assessed as cell viability after 72 hrs by MTT assay; assay type: functional, cell-based; conditions: 22Rv1, 72 h
[20] = biological target: Tyrosine-protein kinase Fyn (Homo sapiens, UniProt P06241); assay: Inhibition of human recombinant Fyn
Sequence of Tyrosine-protein kinase Fyn (P06241 whole entry): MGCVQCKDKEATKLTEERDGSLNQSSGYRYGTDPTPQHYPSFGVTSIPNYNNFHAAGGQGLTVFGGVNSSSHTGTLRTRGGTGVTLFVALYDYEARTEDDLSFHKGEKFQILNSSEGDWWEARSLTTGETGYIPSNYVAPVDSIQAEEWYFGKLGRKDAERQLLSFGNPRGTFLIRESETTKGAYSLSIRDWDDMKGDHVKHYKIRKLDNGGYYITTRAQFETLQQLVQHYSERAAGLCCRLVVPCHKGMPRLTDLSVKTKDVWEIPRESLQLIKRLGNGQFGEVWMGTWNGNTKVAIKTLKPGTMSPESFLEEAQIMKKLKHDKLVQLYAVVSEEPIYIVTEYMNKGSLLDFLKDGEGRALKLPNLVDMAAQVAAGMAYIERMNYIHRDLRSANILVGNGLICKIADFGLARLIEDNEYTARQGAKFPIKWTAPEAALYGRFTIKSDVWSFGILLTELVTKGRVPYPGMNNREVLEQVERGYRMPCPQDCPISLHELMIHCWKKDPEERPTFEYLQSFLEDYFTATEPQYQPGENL

[21] = biological target: Proto-oncogene tyrosine-protein kinase receptor Ret (Homo sapiens, UniProt P07949); assay: Inhibition of human recombinant Ret
[22] = biological target: Mitogen-activated protein kinase 10 (Homo sapiens, UniProt P53779); assay: Inhibition of human recombinant JNK3
[23] = biological target: Serine/threonine-protein kinase PAK 4 (Homo sapiens, UniProt O96013); assay: Inhibition of human recombinant PAK4
[24] = biological target: Tyrosine-protein kinase BTK (Homo sapiens, UniProt Q06187); assay: Inhibition of human recombinant BTK
Sequence of Tyrosine-protein kinase BTK (Q06187 whole entry): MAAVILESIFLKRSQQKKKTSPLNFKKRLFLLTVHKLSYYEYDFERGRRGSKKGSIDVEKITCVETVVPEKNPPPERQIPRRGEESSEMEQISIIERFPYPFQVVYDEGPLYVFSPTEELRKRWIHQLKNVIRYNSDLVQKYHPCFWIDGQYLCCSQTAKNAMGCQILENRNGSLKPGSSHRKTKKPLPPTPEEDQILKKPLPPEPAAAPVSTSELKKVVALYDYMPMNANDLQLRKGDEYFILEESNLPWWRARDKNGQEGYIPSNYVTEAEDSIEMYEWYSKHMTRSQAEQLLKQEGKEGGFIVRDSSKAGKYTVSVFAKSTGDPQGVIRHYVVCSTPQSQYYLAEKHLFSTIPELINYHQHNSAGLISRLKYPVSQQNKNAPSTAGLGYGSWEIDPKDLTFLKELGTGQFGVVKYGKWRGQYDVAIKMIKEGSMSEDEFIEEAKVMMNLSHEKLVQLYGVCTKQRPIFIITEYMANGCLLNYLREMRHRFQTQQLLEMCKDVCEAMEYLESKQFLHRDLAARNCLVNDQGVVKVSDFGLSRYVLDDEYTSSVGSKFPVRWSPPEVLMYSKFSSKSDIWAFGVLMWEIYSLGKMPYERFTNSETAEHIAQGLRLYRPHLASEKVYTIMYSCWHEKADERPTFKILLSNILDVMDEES

[25] = biological target: Serine/threonine-protein kinase PAK 1 (Homo sapiens, UniProt Q13153); assay: Inhibition of human recombinant PAK1
[26] = biological target: Receptor-type tyrosine-protein kinase FLT3 (Homo sapiens) (UniProt P36888); assay: Inhibition of FLT3 in human MV4-11 cells assessed as down regulation of ERK1/2 phosphorylation at >0.001 uM after 6 hrs by Western blotting analysis; assay type: cell-based
Sequence of Receptor-type tyrosine-protein kinase FLT3 (Homo sapiens) (P36888 whole entry): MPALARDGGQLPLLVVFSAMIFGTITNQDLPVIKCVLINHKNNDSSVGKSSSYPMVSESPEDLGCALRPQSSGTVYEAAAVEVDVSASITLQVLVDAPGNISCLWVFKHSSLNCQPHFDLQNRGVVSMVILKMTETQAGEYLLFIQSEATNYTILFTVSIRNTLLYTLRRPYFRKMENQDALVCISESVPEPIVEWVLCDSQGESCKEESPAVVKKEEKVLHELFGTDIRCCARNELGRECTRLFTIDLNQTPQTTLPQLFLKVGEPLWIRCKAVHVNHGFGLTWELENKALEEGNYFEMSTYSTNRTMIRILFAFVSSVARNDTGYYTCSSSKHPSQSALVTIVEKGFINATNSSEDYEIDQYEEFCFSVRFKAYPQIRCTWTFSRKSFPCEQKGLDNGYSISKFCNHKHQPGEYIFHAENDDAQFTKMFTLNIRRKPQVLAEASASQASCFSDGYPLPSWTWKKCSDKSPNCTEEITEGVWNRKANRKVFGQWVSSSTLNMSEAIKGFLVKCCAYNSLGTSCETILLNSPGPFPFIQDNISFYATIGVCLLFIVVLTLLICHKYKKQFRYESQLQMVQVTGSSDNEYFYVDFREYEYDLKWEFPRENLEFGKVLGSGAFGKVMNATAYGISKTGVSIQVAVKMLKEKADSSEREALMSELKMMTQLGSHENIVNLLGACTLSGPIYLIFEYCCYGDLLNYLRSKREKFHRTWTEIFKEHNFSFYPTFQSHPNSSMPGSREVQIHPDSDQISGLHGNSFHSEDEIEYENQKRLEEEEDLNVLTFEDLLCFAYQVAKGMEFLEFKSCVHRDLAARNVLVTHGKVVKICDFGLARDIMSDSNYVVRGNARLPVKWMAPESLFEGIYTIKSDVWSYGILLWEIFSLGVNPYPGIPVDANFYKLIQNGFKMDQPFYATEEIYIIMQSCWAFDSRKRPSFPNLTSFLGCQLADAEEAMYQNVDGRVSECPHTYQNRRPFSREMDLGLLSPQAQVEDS

SW480 = assay: Cytotoxicity against human SW480 cells assessed as cell viability after 72 hrs by MTT assay; assay type: functional, cell-based; conditions: SW480, 72 h
MCF7 = assay: Cytotoxicity against human MCF7 cells assessed as cell viability after 72 hrs by MTT assay; assay type: functional, cell-based; conditions: MCF7, 72 h
[27] = biological target: Receptor tyrosine-protein kinase erbB-2 (Homo sapiens, UniProt P04626); assay: Inhibition of human recombinant ErbB2
[28] = biological target: Serine/threonine-protein kinase PAK 2 (Homo sapiens, UniProt Q13177); assay: Inhibition of human recombinant PAK2
Aurora kinase A = Aurora kinase A (Homo sapiens, UniProt O14965); assay: Inhibition of human recombinant Aurora-A
[29] = biological target: 5'-AMP-activated protein kinase catalytic subunit alpha-1 (Homo sapiens, UniProt Q13131); assay: Inhibition of human recombinant AMPKalpha1
HT-29 = assay: Cytotoxicity against human HT-29 cells assessed as cell viability after 72 hrs by MTT assay; assay type: functional, cell-based; conditions: HT-29, 72 h
HCT-116 = assay: Cytotoxicity against human HCT116 cells assessed as cell viability after 72 hrs by MTT assay; assay type: functional, cell-based; conditions: HCT-116, 72 h
[30] = biological target: Mast/stem cell growth factor receptor Kit (Homo sapiens, UniProt P10721); assay: Inhibition of human recombinant ckit
MDA-MB-435 = assay: Cytotoxicity against human MDA-MB-435 cells assessed as cell viability after 72 hrs by MTT assay; assay type: functional, cell-based; conditions: MDA-MB-435, 72 h
A-375 = assay: Cytotoxicity against human A375 cells assessed as cell viability after 72 hrs by MTT assay; assay type: functional, cell-based; conditions: A-375, 72 h
[31] = biological target: Hepatocyte growth factor receptor (Homo sapiens, UniProt P08581); assay: Inhibition of human recombinant Met
[32] = biological target: Platelet-derived growth factor receptor beta (Homo sapiens, UniProt P09619); assay: Inhibition of human recombinant PDGFRbeta
Sequence of Platelet-derived growth factor receptor beta (P09619 whole entry): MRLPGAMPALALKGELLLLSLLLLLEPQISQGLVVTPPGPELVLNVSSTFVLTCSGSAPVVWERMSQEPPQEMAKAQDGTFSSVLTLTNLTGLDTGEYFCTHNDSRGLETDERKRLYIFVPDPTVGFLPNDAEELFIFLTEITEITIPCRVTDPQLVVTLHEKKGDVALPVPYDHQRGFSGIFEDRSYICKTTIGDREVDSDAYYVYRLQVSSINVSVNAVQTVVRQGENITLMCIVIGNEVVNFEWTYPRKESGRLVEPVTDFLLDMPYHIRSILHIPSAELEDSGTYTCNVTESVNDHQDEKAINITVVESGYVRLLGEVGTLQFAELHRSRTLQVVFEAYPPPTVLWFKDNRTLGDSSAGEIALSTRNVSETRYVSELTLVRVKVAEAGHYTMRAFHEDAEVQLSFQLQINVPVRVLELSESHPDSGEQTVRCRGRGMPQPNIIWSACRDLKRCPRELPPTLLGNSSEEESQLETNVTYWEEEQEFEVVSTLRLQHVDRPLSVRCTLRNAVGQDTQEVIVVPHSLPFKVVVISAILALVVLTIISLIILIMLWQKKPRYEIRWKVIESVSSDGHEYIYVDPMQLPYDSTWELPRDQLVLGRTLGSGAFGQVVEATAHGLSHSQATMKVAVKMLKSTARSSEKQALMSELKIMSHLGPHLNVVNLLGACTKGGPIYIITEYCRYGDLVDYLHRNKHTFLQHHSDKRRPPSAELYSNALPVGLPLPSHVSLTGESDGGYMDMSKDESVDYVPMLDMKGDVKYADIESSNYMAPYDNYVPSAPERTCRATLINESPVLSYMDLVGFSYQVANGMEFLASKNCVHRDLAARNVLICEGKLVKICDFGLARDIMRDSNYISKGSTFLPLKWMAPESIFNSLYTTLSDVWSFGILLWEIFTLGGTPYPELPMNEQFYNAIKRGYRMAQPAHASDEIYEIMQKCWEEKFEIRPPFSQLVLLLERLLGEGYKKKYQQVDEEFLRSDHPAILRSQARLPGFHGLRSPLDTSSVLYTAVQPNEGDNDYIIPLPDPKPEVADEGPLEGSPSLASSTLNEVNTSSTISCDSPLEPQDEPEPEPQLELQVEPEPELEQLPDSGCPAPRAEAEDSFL

[33] = biological target: Vascular endothelial growth factor receptor 3 (Homo sapiens, UniProt P35916); assay: Inhibition of human recombinant Flt4

- IC50 [1]: > 10 µM
- IC50 [2]: > 10 µM
- IC50 [3]: 0.37 µM
- IC50 [4]: > 10 µM
- IC50 [5]: > 10 µM
- IC50 [6]: > 10 µM
- IC50 [7]: 4.04 µM
- IC50 [8]: > 10 µM
- IC50 [9]: > 10 µM
- IC50 [12]: > 10 µM
- IC50 [13]: > 10 µM
- IC50 [14]: > 10 µM
- IC50 (Aurora kinase B): > 10 µM
- IC50 [16]: > 10 µM
- IC50 [17]: > 10 µM
- IC50 [18]: > 10 µM
- IC50 [19]: > 10 µM
- IC50 [20]: > 10 µM
- IC50 [21]: 0.986 µM
- IC50 [22]: > 10 µM
- IC50 [23]: > 10 µM
- IC50 [24]: > 10 µM
- IC50 [25]: > 10 µM
- inhibition [26]: Active
- IC50 [27]: > 10 µM
- IC50 [28]: > 10 µM
- IC50 (Aurora kinase A): > 10 µM
- IC50 [29]: > 10 µM
- IC50 [30]: 0.294 µM
- IC50 [31]: > 10 µM
- IC50 [32]: 1.98 µM
- IC50 [33]: 1.19 µM
Compound: CN(C)CCCNC(=O)c1csc2nc(-c3ccc(NC(=O)Nc4cc(C(C)(C)C)on4)cc3)cn12
- IC50 (Jurkat): 10 µM
- IC50 (A2058): 10 µM
- IC50 (BT-474): 10 µM
- IC50 [10]: 10 µM
- IC50 [11]: 10 µM
- IC50 (MDA-MB-157): > 10 µM
- IC50 (U-251): > 10 µM
- IC50 [15]: > 10 µM
- IC50 (MDA-MB-453): > 10 µM
- IC50 (SH-SY5Y): 3.3 µM
- IC50 (CWR22R): > 10 µM
- IC50 (SW480): 10 µM
- IC50 (MCF7): > 10 µM
- IC50 (HT-29): 10 µM
- IC50 (HCT-116): 10 µM
- IC50 (MDA-MB-435): > 10 µM
- IC50 (A-375): 10 µM
